Experimental data taken from article PMC7545187, “Endocrine disruption of vitamin D activity by perfluoro-octanoic acid (PFOA)” (Scientific Reports, 2020).

Biological target: T1, Vitamin D receptor (VDR) (Homo sapiens, UniProt P11473)
T1 sequence (P11473 1-427): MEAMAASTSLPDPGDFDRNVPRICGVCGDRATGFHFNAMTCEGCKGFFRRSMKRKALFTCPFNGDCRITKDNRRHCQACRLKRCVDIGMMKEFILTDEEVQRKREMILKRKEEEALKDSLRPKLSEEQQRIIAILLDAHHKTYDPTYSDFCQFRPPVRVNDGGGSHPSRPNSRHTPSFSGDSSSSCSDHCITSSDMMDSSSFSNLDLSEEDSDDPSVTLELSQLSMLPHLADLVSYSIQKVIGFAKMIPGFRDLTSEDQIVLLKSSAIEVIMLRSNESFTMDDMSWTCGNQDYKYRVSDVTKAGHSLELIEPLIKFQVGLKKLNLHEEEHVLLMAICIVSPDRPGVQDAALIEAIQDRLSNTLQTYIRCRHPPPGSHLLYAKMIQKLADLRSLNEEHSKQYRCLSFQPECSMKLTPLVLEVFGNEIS
Experiment: SPR competition: PFOA ([…]) with […](OH)D over immobilized VDR; […] decrease, no Kd for PFOA
Type: binding

O=C(O)C(F)(F)C(F)(F)C(F)(F)C(F)(F)C(F)(F)C(F)(F)C(F)(F)F [PFOA, perfluorooctanoic acid]
% decrease: 10 % decrease
